Laboratory results reported in PMC4045409 (Biochemical and biophysical research communications, 2011).

Assays:
α1D-AR + β1-syntrophin [1] = biological target: T1, α1D-AR + β1-syntrophin (Homo sapiens, UniProt P25100); test: [3H]-PI hydrolysis, HEK293 cells, agonist; type: cell-based
T1 sequence (P25100 1-572): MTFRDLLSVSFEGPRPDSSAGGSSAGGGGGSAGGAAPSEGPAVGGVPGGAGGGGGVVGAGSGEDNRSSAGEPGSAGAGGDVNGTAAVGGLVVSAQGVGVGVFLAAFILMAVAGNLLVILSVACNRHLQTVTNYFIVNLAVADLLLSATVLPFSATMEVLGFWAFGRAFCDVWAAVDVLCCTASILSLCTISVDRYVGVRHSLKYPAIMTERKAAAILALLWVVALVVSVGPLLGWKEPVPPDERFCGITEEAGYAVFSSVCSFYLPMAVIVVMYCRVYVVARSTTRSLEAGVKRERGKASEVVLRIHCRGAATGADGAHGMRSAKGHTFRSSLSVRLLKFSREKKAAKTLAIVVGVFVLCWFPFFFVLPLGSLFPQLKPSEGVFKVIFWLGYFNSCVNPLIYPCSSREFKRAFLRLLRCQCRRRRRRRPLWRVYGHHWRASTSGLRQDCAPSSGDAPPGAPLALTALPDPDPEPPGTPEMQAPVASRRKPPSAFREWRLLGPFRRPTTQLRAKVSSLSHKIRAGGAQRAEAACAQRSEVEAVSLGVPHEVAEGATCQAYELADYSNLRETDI
T1 sequence (Q99L88 2-537 partner): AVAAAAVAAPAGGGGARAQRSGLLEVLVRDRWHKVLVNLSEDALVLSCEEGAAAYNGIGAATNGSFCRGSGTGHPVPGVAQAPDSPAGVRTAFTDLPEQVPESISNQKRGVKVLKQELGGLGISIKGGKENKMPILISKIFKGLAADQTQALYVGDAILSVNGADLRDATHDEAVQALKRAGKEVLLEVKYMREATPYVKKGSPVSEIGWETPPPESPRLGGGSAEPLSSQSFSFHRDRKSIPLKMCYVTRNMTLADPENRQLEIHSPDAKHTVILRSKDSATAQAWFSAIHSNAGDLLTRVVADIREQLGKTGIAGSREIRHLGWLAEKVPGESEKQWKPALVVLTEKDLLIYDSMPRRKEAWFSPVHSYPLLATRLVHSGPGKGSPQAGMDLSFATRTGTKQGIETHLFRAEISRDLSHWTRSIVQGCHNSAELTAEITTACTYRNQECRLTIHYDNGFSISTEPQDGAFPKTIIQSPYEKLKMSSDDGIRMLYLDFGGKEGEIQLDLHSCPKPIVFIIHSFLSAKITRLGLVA

α1D-AR + α-syntrophin [2] = biological target: T2, α1D-AR + α-syntrophin (Homo sapiens, UniProt P25100); test: [3H]-PI hydrolysis, HEK293 cells, agonist; type: cell-based
T2 sequence (P25100 1-572): T1 sequence (P25100 1-572)
T2 sequence (Q61234 1-503 partner): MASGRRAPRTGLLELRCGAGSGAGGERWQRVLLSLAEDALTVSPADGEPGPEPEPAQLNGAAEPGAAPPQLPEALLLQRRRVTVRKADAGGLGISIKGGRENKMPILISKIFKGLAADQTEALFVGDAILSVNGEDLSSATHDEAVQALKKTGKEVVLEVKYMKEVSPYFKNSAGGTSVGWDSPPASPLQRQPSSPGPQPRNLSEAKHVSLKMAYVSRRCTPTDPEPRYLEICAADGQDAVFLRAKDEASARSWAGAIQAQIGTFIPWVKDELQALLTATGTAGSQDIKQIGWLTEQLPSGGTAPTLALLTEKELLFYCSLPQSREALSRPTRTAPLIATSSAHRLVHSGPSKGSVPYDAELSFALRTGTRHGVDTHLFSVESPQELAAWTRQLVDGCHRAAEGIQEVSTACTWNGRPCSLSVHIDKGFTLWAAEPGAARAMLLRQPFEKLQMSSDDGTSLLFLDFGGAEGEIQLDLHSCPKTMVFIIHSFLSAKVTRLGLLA

α1D-AR + β2-syntrophin [3] = biological target: T3, α1D-AR + β2-syntrophin (Homo sapiens, UniProt P25100); test: [3H]-PI hydrolysis, HEK293 cells, agonist; type: cell-based
T3 sequence (P25100 1-572): T1 sequence (P25100 1-572)
T3 sequence (Q61235 1-520 partner): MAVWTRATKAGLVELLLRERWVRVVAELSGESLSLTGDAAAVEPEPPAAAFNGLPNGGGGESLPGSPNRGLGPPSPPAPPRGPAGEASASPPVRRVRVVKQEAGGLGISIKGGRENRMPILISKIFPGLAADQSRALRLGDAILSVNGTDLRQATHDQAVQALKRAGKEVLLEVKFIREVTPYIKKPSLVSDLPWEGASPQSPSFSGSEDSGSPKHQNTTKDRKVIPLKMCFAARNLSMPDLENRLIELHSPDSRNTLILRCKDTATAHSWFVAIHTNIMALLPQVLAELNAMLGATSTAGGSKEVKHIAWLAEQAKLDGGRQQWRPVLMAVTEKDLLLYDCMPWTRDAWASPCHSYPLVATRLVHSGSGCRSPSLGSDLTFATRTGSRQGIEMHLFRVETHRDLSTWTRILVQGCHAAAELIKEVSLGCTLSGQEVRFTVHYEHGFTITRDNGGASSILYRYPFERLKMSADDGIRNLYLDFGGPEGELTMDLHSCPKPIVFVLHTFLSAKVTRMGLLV

α1D-AR + β1-syntrophin [4] = biological target: T1, α1D-AR + β1-syntrophin; test: [3H]-prazosin competition, HEK293 membranes; type: binding
α1D-AR + α-syntrophin [5] = biological target: T2, α1D-AR + α-syntrophin; test: [3H]-prazosin competition, HEK293 membranes; type: binding
α1D-AR + β2-syntrophin [6] = biological target: T3, α1D-AR + β2-syntrophin; test: [3H]-prazosin competition, HEK293 membranes; type: binding
[7] = 1 nM [3H]-prazosin, 30 min, 37 °C, value is -log10 of KI in M, single site

| EC50 (α1D-AR + β1-syntrophin [1]) | EC50 (α1D-AR + α-syntrophin [2]) | EC50 (α1D-AR + β2-syntrophin [3]) | Structure (SMILES) | further results |
| --- | --- | --- | --- | --- |
| 13.8 nM | 15.8 nM | 35.5 nM | CNCC(O)c1ccc(O)c(O)c1 (racemic) [(+/−) Epinephrine] |  |
|  |  |  | COc1ccccc1N1CCN(CCCNc2c(C)c(=O)n(C)c(=O)n2C)CC1 [5-MU] | Ki (α1D-AR + β1-syntrophin [4]): 23.4 nM; Ki (α1D-AR + α-syntrophin [5]): 27.5 nM; Ki (α1D-AR + β2-syntrophin [6]): 36.3 nM |
| 155 nM | 67.6 nM | 126 nM | CNC[C@H](O)c1cccc(O)c1 [(−) Phenylephrine] |  |
|  |  |  | CCS(=O)(=O)Nc1cccc(C(=C2CCCCC2)c2cnc[nH]2)c1 [A-315456] | +β1-syntrophin (α1D-AR + β1-syntrophin [4]; [7]): 7.27 ± 0.08 M; +α-syntrophin (α1D-AR + α-syntrophin [5]; [7]): 7.25 ± 0.13 M; +β2-syntrophin (α1D-AR + β2-syntrophin [6]; [7]): 7.42 ± 0.21 M |
